Patent US10450356B2, “PRAME derived peptides and immunogenic compositions comprising these” (Academisch Ziekenhuis Leiden H.O.D.N. LUMC, priority 2007, dated 2019)

Molecular target: T1, 20S proteasomes purified from a B-LCL cell line (immunoproteasomes) (Homo sapiens, UniProt P28062+P28065+P40306)
T1 construct: 20S proteasomes were purified from a B-LCL cell line; endogenous in cells; purified after Groettrup et al. 1995
Assay: In vitro proteasome mediated cleavage analysis
Format: biochemical
Design: key to Intact in fragment / Intact Fragment: intact epitope found in digestion fragments: (+), present; (-), not present; key to Processing C-term: generation by proteasome-mediated digestion of fragments containing the correct C-terminus: (++) fragments present for >5%; (+) present for <5%; (-) no fragments containing the C-term. were found
Conditions: for Processing C-term: generation by proteasome-mediated digestion of fragments containing the correct C-terminus: 1 h digestion; for Intact Fragment: intact epitope found in digestion fragments: after 1 h digestion; for C-term. generation: generation of C-terminus of the epitope after 1 h digestion; for Intact in fragment: intact epitope found in digestion fragments after 1 h digestion
Method: 20S proteasomes were purified from a B-LCL cell line as described by Groettrup et al. (J. Biol. Chem. 270:23808-23815; 1995). This cell type is known to contain immunoproteasomes. High LMP2 and 7 content was confirmed by 2-D immuno-blotting. To assess kinetics, digestions were performed with different incubation periods. Peptides (27 mers, 20 μg) were incubated with 1 μg of purified proteasome at 37° C. for 1 h, 4 h and 24 h in 300 μl proteasome digestion buffer as described (Eggers, et al. 1995. J. Exp. Med. 182:1865). Trifluoroacetic acid was added to stop the digestion and samples were stored at −20° C. before mass spectrometric analysis.
Electrospray ionization mass spectrometry was performed on a hybrid quadrupole time-of-flight mass spectrometer, a Q-TOF (Micromass), equipped with an on-line nanoelectrospray interface with an approximate flow rate of 250 nL/min. Injections were done with a dedicated micro/nano HPLC autosampler, the FAMOS (LC Packings). Digestion solutions were diluted five times in water-methanol-acetic acid (95:5:1, v/v/v), and trapped on the precolumn (MCA-300-05-C8; LC Packings) in water-methanol-acetic acid (95:5:1, v/v/v). Washing of the precolumn was done for 3 min to remove the buffers present in the digests. Subsequently, the trapped analytes were eluted with a steep gradient going from 70% B to 90% B in 10 min, with a flow of 250 nl/min (A: water-methanol-acetic acid (95:5:1, v/v/v); B: water-methanol-acetic acid (10:90:1, v/v/v)). This low elution rate allows for a few additional MS/MS experiments if necessary during the same elution. Mass spectra were recorded from mass 50-2000 Da every second. The resolution allows direct determination of the monoisotopic mass, also from multiple charged ions. The peaks in the mass spectrum were searched in the digested precursor peptide using the Biolynx/proteins software (Micromass). The intensity of the peaks in the mass spectra was used to establish the relative amounts of peptides generated by proteasome digestion.

Row | Structure (SMILES) | Processing C-term: generation by proteasome-mediated digestion of fragments containing the correct C-terminus | Intact Fragment: intact epitope found in digestion fragments | C-term. generation | Intact in fragment
1 | CC(C)C[C@H](NC(=O)[C@H](Cc1c[nH]cn1)NC(=O)[C@H](CCC(N)=O)NC(=O)[C@H](CC(C)C)NC(=O)[C@H](CC(C)C)NC(=O)[C@H](CO)NC(=O)[C@H](CCC(N)=O)NC(=O)[C@H](CC(C)C)NC(=O)[C@H](C)N)C(=O)O | - | - |  | 
2 | CC(C)C[C@H](NC(=O)[C@H](CC(C)C)NC(=O)[C@H](CCC(N)=O)NC(=O)[C@H](CC(=O)O)NC(=O)[C@H](CC(C)C)NC(=O)[C@H](CCCNC(=N)N)NC(=O)CNC(=O)[C@H](CCCNC(=N)N)NC(=O)[C@H](CC(C)C)NC(=O)[C@@H](N)Cc1ccccc1)C(=O)O | - | - |  | 
3 | CC[C@H](C)[C@H](NC(=O)[C@H](Cc1ccc(O)cc1)NC(=O)[C@@H](N)CCC(N)=O)C(=O)N[C@@H](C)C(=O)N[C@@H](CCC(N)=O)C(=O)N[C@@H](Cc1ccccc1)C(=O)N[C@H](C(=O)N[C@@H](CO)C(=O)N[C@@H](CCC(N)=O)C(=O)N[C@@H](Cc1ccccc1)C(=O)O)[C@@H](C)O | ++ ((++) fragments present for >5%) | + | ++ (abundant (++) present for >5%) | +
4 | CC(C)C[C@H](NC(=O)[C@H](CCC(N)=O)NC(=O)[C@H](CC(=O)O)NC(=O)[C@H](CC(C)C)NC(=O)[C@H](CCCNC(=N)N)NC(=O)CNC(=O)[C@H](CCCNC(=N)N)NC(=O)[C@H](CC(C)C)NC(=O)[C@H](Cc1ccccc1)NC(=O)[C@@H](N)Cc1ccccc1)C(=O)O | - | - |  | 
5 | CC(C)C[C@H](NC(=O)CNC(=O)[C@H](CC(=O)O)NC(=O)[C@H](CC(C)C)NC(=O)[C@@H](NC(=O)[C@H](C)NC(=O)[C@H](CCCCN)NC(=O)[C@H](Cc1ccccc1)NC(=O)[C@@H](N)[C@@H](C)O)C(C)C)C(=O)O | - | - |  | 
6 | CSCC[C@H](NC(=O)[C@@H](NC(=O)[C@H](CC(=O)O)NC(=O)CNC(=O)[C@H](CCC(=O)O)NC(=O)[C@H](CO)NC(=O)[C@@H](N)CC(C)C)C(C)C)C(=O)N[C@@H](Cc1c[nH]cn1)C(=O)N[C@@H](CC(C)C)C(=O)O |  |  | + (low abundant (+) present for <5%) | +
7 | CC[C@H](C)[C@H](NC(=O)[C@H](CC(C)C)NC(=O)[C@@H](N)Cc1ccc(O)cc1)C(=O)N[C@@H](CCC(=O)O)C(=O)N[C@@H](CCCCN)C(=O)N[C@H](C(=O)N[C@@H](CCCCN)C(=O)N[C@@H](CCCNC(=N)N)C(=O)N[C@@H](CCCCN)C(=O)O)C(C)C | - | - |  | 
8 | CC(C)C[C@H](NC(=O)[C@@H](NC(=O)[C@H](CC(=O)O)NC(=O)[C@H](CC(C)C)NC(=O)CNC(=O)[C@H](CC(=O)O)NC(=O)[C@H](CC(C)C)NC(=O)[C@@H](NC(=O)[C@H](C)N)C(C)C)C(C)C)C(=O)O | - | - |  | 
9 | CSCC[C@H](N)C(=O)N[C@@H](CC(C)C)C(=O)N[C@H](C(=O)N[C@@H](CC(=O)O)C(=O)N[C@H](C(=O)N[C@@H](CO)C(=O)N1CCC[C@H]1C(=O)N[C@@H](CCC(=O)O)C(=O)N1CCC[C@H]1C(=O)N[C@@H](CC(C)C)C(=O)O)C(C)C)[C@@H](C)O | - | - |  | 
10 | CC(C)C[C@H](NC(=O)[C@@H]1CCCN1C(=O)[C@H](CCC(=O)O)NC(=O)[C@@H]1CCCN1C(=O)[C@H](CO)NC(=O)[C@@H](NC(=O)[C@H](CC(=O)O)NC(=O)[C@@H](NC(=O)[C@@H](N)CC(C)C)[C@@H](C)O)C(C)C)C(=O)N[C@@H](CCC(N)=O)C(=O)N[C@@H](C)C(=O)O | + ((+) present for <5%) | + | + (low abundant (+) present for <5%) | +
11 | CC(C)C[C@H](NC(=O)[C@H](Cc1c[nH]cn1)NC(=O)[C@H](CC(C)C)NC(=O)[C@@H](N)Cc1c[nH]cn1)C(=O)N[C@@H](CCC(=O)O)C(=O)N[C@H](C(=O)N[C@@H](Cc1ccccc1)C(=O)N[C@@H](CCCCN)C(=O)N[C@@H](C)C(=O)O)[C@@H](C)O | - | - |  | 
12 | CC(C)C[C@H](NC(=O)[C@H](C)NC(=O)[C@H](CCC(N)=O)NC(=O)[C@H](CC(C)C)NC(=O)[C@H](CS)NC(=O)[C@H](CCC(N)=O)NC(=O)[C@H](CC(C)C)NC(=O)[C@H](CO)NC(=O)[C@@H](N)CC(C)C)C(=O)N[C@@H](Cc1ccc(O)cc1)C(=O)O | - | - |  | 
13 | CC(C)C[C@H](NC(=O)CN)C(=O)N[C@@H](CC(=O)O)C(=O)N[C@H](C(=O)N[C@@H](CC(C)C)C(=O)N[C@@H](CC(C)C)C(=O)N[C@@H](C)C(=O)N[C@@H](CCC(N)=O)C(=O)N[C@@H](CCC(=O)O)C(=O)N[C@H](C(=O)O)C(C)C)C(C)C | - | - |  | 
14 | CC(C)C[C@H](NC(=O)[C@H](CC(=O)O)NC(=O)[C@H](CC(C)C)NC(=O)[C@@H](NC(=O)[C@H](CCC(N)=O)NC(=O)[C@H](CC(C)C)NC(=O)[C@@H](N)CCCCN)C(C)C)C(=O)N[C@@H](CCCNC(=N)N)C(=O)N[C@@H](CCCCN)C(=O)O | - | - |  | 
15 | CSCC[C@H](NC(=O)[C@H](CO)NC(=O)[C@@H]1CCCN1C(=O)[C@H](CCCNC(=N)N)NC(=O)CNC(=O)[C@H](CC(C)C)NC(=O)[C@H](CCC(=O)O)NC(=O)[C@H](CS)NC(=O)[C@H](CC(C)C)NC(=O)[C@@H](N)CC(C)C)C(=O)O | - | - |  | 
16 | CC(C)C[C@H](NC(=O)[C@H](C)NC(=O)[C@H](CCC(N)=O)NC(=O)[C@H](CC(C)C)NC(=O)[C@H](CS)NC(=O)[C@H](CCC(N)=O)NC(=O)[C@H](CC(C)C)NC(=O)[C@H](CO)NC(=O)[C@H](CC(C)C)NC(=O)[C@@H](N)Cc1ccccc1)C(=O)O [FLSLQCLQAL] | - | - |  | 
17 | CC(C)C[C@H](NC(=O)[C@H](CC(C)C)NC(=O)[C@@H](NC(=O)[C@H](CC(=O)O)NC(=O)[C@H](CC(C)C)NC(=O)CNC(=O)[C@H](CC(=O)O)NC(=O)[C@H](CC(C)C)NC(=O)[C@@H](NC(=O)[C@H](C)N)C(C)C)C(C)C)C(=O)O | ++ ((++) fragments present for >5%) | + | ++ (abundant (++) present for >5%) | +
18 | CC[C@H](C)[C@H](NC(=O)[C@H](CO)NC(=O)[C@H](CC(N)=O)NC(=O)CNC(=O)[C@H](Cc1ccc(O)cc1)NC(=O)[C@H](Cc1ccccc1)NC(=O)[C@H](CO)NC(=O)[C@H](CC(C)C)NC(=O)[C@@H](N)[C@@H](C)O)C(=O)O | - | - | ++ (abundant (++) present for >5%) | +
19 | CC[C@H](C)[C@H](NC(=O)[C@H](CC(=O)O)NC(=O)[C@H](CCC(=O)O)NC(=O)[C@H](Cc1ccc(O)cc1)NC(=O)[C@@H](N)CO)C(=O)N[C@@H](Cc1c[nH]cn1)C(=O)NCC(=O)N[C@H](C(=O)N[C@@H](CC(C)C)C(=O)O)[C@@H](C)O | - | - |  | 
20 | CC[C@H](C)[C@H](NC(=O)[C@H](CC(=O)O)NC(=O)[C@H](CCC(N)=O)NC(=O)[C@H](CCSC)NC(=O)[C@@H]1CCCN1C(=O)[C@H](CCSC)NC(=O)[C@H](C)NC(=O)[C@H](Cc1ccccc1)NC(=O)[C@@H](NC(=O)[C@@H](N)CCCCN)[C@@H](C)CC)C(=O)O | - | - |  | 
